{"source": "patent US20090047314A1", "about": "“MICROENCAPSULATION SYSTEMS AND APPLICATIONS OF SAME” (Centre National de la Recherche Scientifique (C.N.R.S.), priority 2003, published 2009)", "experiment": "Encapsulation of molecule in the beads (determination by HPLC)", "format": "physicochemical", "settings": "α-cyclodextrin/soya oil beads", "method": "The procedure is carried out as described in Example 1, but using, as molecules of interest, molecules that are active in therapeutics or that can be used in cosmetics, such as pigments or dyes, vitamin E acetate, benzophenone or isotretinoin.\nIn addition, it was shown that 30% of vitamin E acetate is encapsulated (determination by HPLC).", "data": [{"smiles": "CC(=O)Oc1c(C)c(C)c2c(c1C)CCC(C)(CCC[C@H](C)CCC[C@H](C)CCCC(C)C)O2", "note": "(stereo partly shown) [vitamin E acetate]", "values": [{"measurement": "fraction of molecule encapsulated in the beads", "value": 30, "unit": "%"}]}]}
